Experiments:
MDA-MB-231 = test: Antiproliferative activity against human MDA-MB-231 cells assessed as inhibition of cell growth incubated for 72 hrs by CellTiter 96 aqueous one solution assay; type: functional, cell-based; conditions: MDA-MB-231, 72 h
OVCAR-3 = test: Antiproliferative activity against human OVCAR3 cells assessed as inhibition of cell growth incubated for 72 hrs by CellTiter 96 aqueous one solution assay; type: functional, cell-based; conditions: OVCAR-3, 72 h
MDA-MB-435 = test: Antiproliferative activity against human MDA-MB-435 cells assessed as inhibition of cell growth incubated for 72 hrs by CellTiter 96 aqueous one solution assay; type: functional, cell-based; conditions: MDA-MB-435, 72 h
[1] = target: Histone-lysine N-methyltransferase 2A (Homo sapiens, UniProt Q03164); test: Inhibition of human recombinant MLL1 using [3H]S-adenosyl-methionine as substrate
Sequence of Histone-lysine N-methyltransferase 2A (Q03164 1-2718 limits assumed): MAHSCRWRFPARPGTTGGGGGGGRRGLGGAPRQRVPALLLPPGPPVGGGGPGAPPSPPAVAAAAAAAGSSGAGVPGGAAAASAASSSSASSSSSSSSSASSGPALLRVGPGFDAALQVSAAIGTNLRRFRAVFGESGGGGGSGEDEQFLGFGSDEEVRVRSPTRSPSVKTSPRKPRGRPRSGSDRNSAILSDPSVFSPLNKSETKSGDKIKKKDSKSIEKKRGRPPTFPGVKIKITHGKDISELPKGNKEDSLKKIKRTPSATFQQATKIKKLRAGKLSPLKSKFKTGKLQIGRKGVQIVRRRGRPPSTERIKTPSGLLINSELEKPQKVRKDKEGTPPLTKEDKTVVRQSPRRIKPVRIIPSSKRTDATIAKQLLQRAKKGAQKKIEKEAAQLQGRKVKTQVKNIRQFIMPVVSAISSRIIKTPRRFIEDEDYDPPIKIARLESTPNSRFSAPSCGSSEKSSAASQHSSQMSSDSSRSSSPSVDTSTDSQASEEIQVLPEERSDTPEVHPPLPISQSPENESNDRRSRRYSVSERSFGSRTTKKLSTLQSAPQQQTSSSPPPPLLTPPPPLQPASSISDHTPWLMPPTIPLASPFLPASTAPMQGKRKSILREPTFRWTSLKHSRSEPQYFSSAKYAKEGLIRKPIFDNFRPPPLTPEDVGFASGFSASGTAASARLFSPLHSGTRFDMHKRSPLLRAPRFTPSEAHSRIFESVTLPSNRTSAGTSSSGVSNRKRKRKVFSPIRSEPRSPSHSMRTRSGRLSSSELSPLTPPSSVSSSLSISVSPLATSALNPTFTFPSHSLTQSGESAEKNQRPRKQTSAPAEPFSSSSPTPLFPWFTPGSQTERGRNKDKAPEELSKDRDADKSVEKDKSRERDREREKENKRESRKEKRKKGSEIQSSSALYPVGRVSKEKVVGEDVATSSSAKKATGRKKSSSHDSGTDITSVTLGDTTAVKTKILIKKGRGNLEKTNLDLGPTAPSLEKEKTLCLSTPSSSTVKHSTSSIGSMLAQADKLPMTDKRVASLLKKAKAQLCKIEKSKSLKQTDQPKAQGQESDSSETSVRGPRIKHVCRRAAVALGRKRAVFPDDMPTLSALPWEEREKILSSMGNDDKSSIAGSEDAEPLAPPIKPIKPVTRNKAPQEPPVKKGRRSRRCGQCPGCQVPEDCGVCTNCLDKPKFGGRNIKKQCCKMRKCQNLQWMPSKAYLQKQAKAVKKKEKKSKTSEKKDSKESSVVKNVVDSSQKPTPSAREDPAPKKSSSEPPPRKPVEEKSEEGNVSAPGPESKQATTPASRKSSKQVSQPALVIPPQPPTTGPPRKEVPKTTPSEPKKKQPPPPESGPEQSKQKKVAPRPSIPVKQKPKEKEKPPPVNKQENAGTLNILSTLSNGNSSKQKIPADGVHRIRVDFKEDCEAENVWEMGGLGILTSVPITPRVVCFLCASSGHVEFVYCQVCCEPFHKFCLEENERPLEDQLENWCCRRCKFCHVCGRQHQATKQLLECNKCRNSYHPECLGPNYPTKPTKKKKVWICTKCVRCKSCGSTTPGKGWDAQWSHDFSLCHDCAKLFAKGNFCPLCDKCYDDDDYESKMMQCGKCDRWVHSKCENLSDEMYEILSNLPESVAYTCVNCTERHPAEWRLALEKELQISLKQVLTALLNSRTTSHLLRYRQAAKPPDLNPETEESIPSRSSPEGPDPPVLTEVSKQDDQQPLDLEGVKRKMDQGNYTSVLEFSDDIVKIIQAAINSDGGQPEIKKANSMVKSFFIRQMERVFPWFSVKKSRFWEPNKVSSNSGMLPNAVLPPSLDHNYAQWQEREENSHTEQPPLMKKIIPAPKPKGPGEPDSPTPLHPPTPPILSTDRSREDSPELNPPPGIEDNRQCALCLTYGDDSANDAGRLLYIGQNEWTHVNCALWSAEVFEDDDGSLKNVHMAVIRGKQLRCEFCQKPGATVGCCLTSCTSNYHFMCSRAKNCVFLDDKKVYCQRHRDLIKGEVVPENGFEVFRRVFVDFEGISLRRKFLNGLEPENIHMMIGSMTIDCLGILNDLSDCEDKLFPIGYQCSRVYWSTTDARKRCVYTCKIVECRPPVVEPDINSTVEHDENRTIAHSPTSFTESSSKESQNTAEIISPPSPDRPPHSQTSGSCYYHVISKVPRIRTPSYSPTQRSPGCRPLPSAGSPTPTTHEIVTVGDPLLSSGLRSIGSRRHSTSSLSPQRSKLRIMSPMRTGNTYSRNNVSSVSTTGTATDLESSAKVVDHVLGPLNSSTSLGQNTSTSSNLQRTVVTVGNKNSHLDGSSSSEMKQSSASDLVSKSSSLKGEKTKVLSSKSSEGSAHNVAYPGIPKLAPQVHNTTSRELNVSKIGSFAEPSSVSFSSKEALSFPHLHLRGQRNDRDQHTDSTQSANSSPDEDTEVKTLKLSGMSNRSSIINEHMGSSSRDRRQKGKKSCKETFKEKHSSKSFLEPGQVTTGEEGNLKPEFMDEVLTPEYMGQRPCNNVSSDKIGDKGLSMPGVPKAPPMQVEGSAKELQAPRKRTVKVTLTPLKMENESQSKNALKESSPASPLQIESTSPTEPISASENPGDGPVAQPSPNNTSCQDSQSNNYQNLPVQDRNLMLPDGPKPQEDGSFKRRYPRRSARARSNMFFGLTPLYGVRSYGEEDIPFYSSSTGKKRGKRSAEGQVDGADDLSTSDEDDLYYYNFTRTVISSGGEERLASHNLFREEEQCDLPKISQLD
Sequence of Histone-lysine N-methyltransferase 2A (Q03164 2719-3969 limits assumed): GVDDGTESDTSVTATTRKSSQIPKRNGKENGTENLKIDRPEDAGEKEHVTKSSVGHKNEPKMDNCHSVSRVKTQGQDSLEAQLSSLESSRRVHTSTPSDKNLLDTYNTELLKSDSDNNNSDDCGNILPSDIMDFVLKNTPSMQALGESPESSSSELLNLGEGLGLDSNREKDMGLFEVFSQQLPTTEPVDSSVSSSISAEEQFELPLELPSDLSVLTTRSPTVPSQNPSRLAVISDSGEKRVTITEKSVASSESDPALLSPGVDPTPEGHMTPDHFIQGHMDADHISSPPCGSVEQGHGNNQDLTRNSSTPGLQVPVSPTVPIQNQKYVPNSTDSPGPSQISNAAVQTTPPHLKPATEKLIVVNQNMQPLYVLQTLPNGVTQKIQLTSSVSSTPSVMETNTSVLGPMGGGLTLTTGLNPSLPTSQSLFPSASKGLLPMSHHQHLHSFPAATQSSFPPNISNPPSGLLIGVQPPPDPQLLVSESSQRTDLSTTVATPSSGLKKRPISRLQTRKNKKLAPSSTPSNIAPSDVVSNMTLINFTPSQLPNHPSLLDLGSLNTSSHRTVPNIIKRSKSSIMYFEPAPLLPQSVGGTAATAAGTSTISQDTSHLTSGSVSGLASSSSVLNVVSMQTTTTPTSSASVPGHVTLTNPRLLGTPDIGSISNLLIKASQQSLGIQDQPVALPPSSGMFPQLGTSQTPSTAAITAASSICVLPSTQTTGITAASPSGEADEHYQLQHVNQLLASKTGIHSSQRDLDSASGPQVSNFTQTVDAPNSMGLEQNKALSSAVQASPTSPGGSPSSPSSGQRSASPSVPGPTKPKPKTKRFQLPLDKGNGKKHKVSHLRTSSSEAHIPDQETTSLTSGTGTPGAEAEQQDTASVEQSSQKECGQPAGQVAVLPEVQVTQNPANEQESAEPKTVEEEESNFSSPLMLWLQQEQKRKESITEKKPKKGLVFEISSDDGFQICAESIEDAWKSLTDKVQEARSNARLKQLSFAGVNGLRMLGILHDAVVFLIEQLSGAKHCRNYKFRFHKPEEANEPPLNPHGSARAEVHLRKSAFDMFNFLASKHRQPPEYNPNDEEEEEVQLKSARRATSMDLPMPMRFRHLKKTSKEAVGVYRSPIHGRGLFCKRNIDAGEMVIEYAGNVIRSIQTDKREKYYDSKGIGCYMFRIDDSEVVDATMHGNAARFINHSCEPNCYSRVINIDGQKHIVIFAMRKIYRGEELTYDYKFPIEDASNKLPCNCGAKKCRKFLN

IC50 (MDA-MB-231) | IC50 (OVCAR-3) | IC50 (MDA-MB-435) | Compound | IC50 [1]
71 nM | 100 nM | 88 nM | CC[C@@]12SS[C@]3(C(=O)N1C)[C@@H](O)[C@]1([C@@]45c6ccccc6N[C@@H]4N4C(=O)[C@]6(CC)SS[C@]4(C(=O)N6C)[C@H]5O)c4ccccc4N[C@@H]1N3C2=O | –
70 nM | 100 nM | 72 nM | CC[C@@]12SS[C@]3(C(=O)N1C)[C@@H](O)[C@]1([C@@]45c6cc(F)ccc6N[C@@H]4N4C(=O)[C@]6(C)SS[C@]4(C(=O)N6C)[C@H]5O)c4ccccc4N[C@@H]1N3C2=O | –
840 nM | 920 nM | 830 nM | CC[C@@]12SS[C@]3(C(=O)N1C)[C@@H](O)[C@]1([C@@]45c6cc(F)ccc6N[C@@H]4N4C(=O)[C@]6(CC)SS[C@]4(C(=O)N6C)[C@H]5O)c4cc(F)ccc4N[C@@H]1N3C2=O | –
110 nM | 180 nM | 130 nM | CC[C@@]12SS[C@]3(C(=O)N1C)[C@@H](O)[C@]1([C@@]45c6cc(F)ccc6N[C@@H]4N4C(=O)[C@]6(C)SS[C@]4(C(=O)N6C)[C@H]5O)c4cc(F)ccc4N[C@@H]1N3C2=O | –
59 nM | 75 nM | 65 nM | CN1C(=O)[C@]23SS[C@@]1(C)C(=O)N2[C@H]1Nc2ccc(F)cc2[C@@]1([C@@]12c4cc(F)ccc4N[C@@H]1N1C(=O)[C@]4(C)SS[C@]1(C(=O)N4C)[C@H]2O)[C@@H]3O | –
22 nM | 30 nM | 30 nM | CC[C@@]12SS[C@]3(C(=O)N1C)[C@@H](O)[C@]1([C@@]45c6ccccc6N[C@@H]4N4C(=O)[C@]6(C)SS[C@]4(C(=O)N6C)[C@H]5O)c4ccccc4N[C@@H]1N3C2=O | –
46 nM | 39 nM | 49 nM | CC[C@@]12SS[C@]3(C(=O)N1C)[C@@H](O)[C@]1([C@@]45c6cc(F)ccc6N[C@@H]4N4C(=O)[C@]6(CC)SS[C@]4(C(=O)N6C)[C@H]5O)c4ccccc4N[C@@H]1N3C2=O | –
230 nM | 180 nM | 240 nM | CN1C(=O)[C@]23SS[C@@]1(C)C(=O)N2[C@H]1Nc2ccccc2[C@@]1([C@@]12c4cc(F)ccc4N[C@@H]1N1C(=O)[C@]4(C)SS[C@]1(C(=O)N4C)[C@H]2O)[C@@H]3O | –
37 nM | 37 nM | 39 nM | CC[C@@]12SS[C@]3(C(=O)N1C)[C@@H](O)[C@]1([C@@]45c6ccccc6N[C@@H]4N4C(=O)[C@]6(C)SS[C@]4(C(=O)N6C)[C@H]5O)c4cc(F)ccc4N[C@@H]1N3C2=O | –
170 nM | 5 nM | 0.4 nM | CC(=O)O[C@H]1C(=O)[C@@]2(C)[C@H]([C@H](OC(=O)c3ccccc3)[C@]3(O)C[C@H](OC(=O)[C@H](O)[C@@H](NC(=O)c4ccccc4)c4ccccc4)C(C)=C1C3(C)C)[C@]1(OC(C)=O)CO[C@@H]1C[C@@H]2O [PACLITAXEL] | –

Compound | IC50 (MDA-MB-231) | IC50 (OVCAR-3) | IC50 (MDA-MB-435) | IC50 [1]
CN1C(=O)[C@]23SS[C@@]1(C)C(=O)N2[C@H]1Nc2ccccc2[C@@]1([C@@]12c4ccccc4N[C@@H]1N1C(=O)[C@]4(C)SS[C@]1(C(=O)N4C)[C@H]2O)[C@@H]3O | 43 nM | 37 nM | 37 nM | 800 nM

Source: ChEMBL document CHEMBL4414628, “Engineering Fluorine into Verticillins (Epipolythiodioxopiperazine Alkaloids) via Precursor-Directed Biosynthesis” (J Nat Prod, 2019)
